Experimental data: EP3344255B1 (priority 2016, dated 2017)
Read-outs that look alike come from different tables or passages of the source.

What was measured:
Type in all cases: cell-based, Acinetobacter baumannii
[1] = test system: A.baumannii bacteria with resistance to colistin; experiment: Colistin gradient test (E-test) on Mueller Hinton Agar with and without methylene blue
Description: (§1) Firstly, colistin-susceptible A.baumannii strains obtained from the same passage were subcultured on media (Mueller Hinton Agar) containing 14 mcg/ml methylene blue and without methylene blue and colistin gradient test (E-test) strips were placed on them.
Later, the same tests were performed on A.baumannii bacteria with resistance to colistin. While there was growth in the medium without methylene blue (Mueller Hinton Agar), there was no growth in the medium containing methylene blue. […] These bacterial varieties with resistance to colistin were tested based on species with different levels of MIC (minimum inhibitory concentrations) for colistin. […] In other words, it's understood these bacteria were inhibited. […] The probable cause of this reduction is that those with MIC values more than 0.5 mcg/ml in the bacterial population were selectively killed by methylene blue. […] However, the inhibition rate for strains with high MIC value (like 32 mcg/ml) was higher than the inhibition rate for strains with low MIC value (like 4-8 mcg/ml). In other words, the susceptiblity to methylene blue is proportional to the colistin resistance levels of colistin-resistant A.baumannii bacteria.
These effects of inhibition of colistin-resistant A.baumannii bacteria by methylene blue are clearly understood from the appearance on MHA (Mueller Hinton Agar) media. Image 1 and 2 provide the appearance of A.baumannii strains with homogeneous resistance to colistin on MHA (Mueller Hinton Agar) media. […] Images 3 and 4 provide images of heteroresistant A.baumannii strains with resistance to colistin on MHA.

[2] = test system: colistin-susceptible A.baumannii strains; experiment: as above
Source text: as §1

[3] = test system: A.baumannii bacteria with resistance to colistin
Description: as §1
Later, the same tests were performed on A.baumannii bacteria with resistance to colistin. […] These bacterial varieties with resistance to colistin were tested based on species with different levels of MIC (minimum inhibitory concentrations) for colistin.

[4] = test system: colistin-susceptible A.baumannii strains; experiment: Growth on Mueller Hinton Agar with and without methylene blue; conditions: 14 mcg/ml methylene blue in Mueller Hinton Agar
Source text: as §1

Colistin (polymyxin E)
MIC ([1]; 14 mcg/ml methylene blue on MHA, heteroresistant strain, outer zone (MIC 2 mcg/ml before)): 0.5 µg/mL | MIC ([1]; MHA without methylene blue, heteroresistant strain, internal zone (Image 3)): 32 µg/mL | MIC ([1]; MHA without methylene blue, heteroresistant strain, outer zone (Image 3)): 2 µg/mL | MIC ([1]; MHA without methylene blue, strain with homogeneous resistance to colistin (Image 1)): 32 µg/mL | MIC (minimum inhibitory concentration) ([1]; with methylene blue, bacteria with low levels of colistin resistance (MIC 1 or 3 mcg/ml before)): 0.5 µg/mL | MIC (minimum inhibitory concentration) ([1]; without methylene blue, bacteria with high levels of colistin resistance): 32 µg/mL | regression of colistin MIC ([2]; medium containing methylene blue vs without, colistin susceptible strains): ~0.5 µg/mL

CN(C)c1ccc2nc3ccc(=[N+](C)C)cc-3sc2c1 [methylene blue]
increase of susceptibility to colistin ([2]; effect of methylene blue, strains with colistin MIC values of 0.5 mcg/ml or less): no increased susceptibility | susceptibility of A.baumannii strain to colistin ([2]; medium containing 14 mcg/ml methylene blue, colistin susceptible strains): slightly increased | growth inhibition ([3]; 14 mcg/ml methylene blue on MHA, heteroresistant strain, internal zone with colistin MIC 32 mcg/ml): totally inhibited | growth inhibition ([3]; 14 mcg/ml methylene blue on MHA, homogeneously resistant strain with colistin MIC 32 mcg/ml (Image 2)): completely inhibited | growth ([3]; medium containing methylene blue (14 mcg/ml), colistin resistant bacteria, growth in medium without methylene blue): no growth | growth inhibition ([3]; methylene blue medium, bacteria with high levels of colistin resistance (MIC value 32 mcg/ml)): completely stopped growth | growth inhibition ([3]; methylene blue medium, bacteria with low levels of colistin resistance (MIC value 1 or 3 mcg/ml)): did not completely stop growing | inhibitory effect on bacterial subpopulations ([3]; methylene blue solution, all subpopulations with colistin MIC value above 0.5 mcg/ml): inhibitory effects | growth inhibition [4]: did not inhibit growth
